According to ChEMBL document CHEMBL5465560, “Selectivity Literature for EUbOPEN Chemogenomic Library” (2024):

Columns and labels:
[1] = molecular target: Tyrosine-protein kinase JAK2 (Homo sapiens, UniProt O60674); test: Selectivity interaction (Ambit KINOMEscan and KiNATiv profiling in Jurkat cells) EUB0000090b JAK2; format: cell-based; conditions: at 1 µM
[2] = molecular target: Mitogen-activated protein kinase 1 (Homo sapiens, UniProt P28482); test: Selectivity interaction (KinomeScan (DiscoverX)) EUB0001619a MAPK1; conditions: at 1 µM
[3] = molecular target: T1, Inhibitor of nuclear factor kappa-B kinase subunit epsilon (Homo sapiens) (UniProt Q14164); test: Selectivity interaction (KinomeScan (DiscoverX)) EUB0001619a IKBKE; conditions: at 1 µM
T1 sequence (whole entry): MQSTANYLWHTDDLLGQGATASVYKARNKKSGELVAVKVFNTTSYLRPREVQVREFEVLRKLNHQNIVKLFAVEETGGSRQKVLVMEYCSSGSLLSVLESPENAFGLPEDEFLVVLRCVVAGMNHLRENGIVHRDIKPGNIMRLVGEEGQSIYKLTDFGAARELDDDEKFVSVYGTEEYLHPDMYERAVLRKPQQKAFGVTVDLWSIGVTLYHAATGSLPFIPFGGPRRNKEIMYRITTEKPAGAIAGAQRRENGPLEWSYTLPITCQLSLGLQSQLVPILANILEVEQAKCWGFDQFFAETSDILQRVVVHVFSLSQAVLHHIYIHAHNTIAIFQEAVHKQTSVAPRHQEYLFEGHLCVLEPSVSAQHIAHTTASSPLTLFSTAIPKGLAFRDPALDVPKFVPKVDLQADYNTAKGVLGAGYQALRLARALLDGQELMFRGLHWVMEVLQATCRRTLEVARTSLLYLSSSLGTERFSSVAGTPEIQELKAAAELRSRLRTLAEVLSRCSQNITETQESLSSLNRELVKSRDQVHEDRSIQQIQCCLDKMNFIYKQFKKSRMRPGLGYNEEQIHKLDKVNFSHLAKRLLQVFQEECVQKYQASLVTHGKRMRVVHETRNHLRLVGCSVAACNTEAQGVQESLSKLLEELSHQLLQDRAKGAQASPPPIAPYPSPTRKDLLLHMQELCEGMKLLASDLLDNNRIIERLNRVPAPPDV

[4] = molecular target: AP2-associated protein kinase 1 (Homo sapiens, UniProt Q2M2I8); test: Selectivity interaction (KinomeScan (DiscoverX)) EUB0000045b AAK1
[5] = molecular target: T2, Myosin light chain kinase family member 4 (Homo sapiens) (UniProt Q86YV6); conditions: at 10 µM
T2 sequence (whole entry): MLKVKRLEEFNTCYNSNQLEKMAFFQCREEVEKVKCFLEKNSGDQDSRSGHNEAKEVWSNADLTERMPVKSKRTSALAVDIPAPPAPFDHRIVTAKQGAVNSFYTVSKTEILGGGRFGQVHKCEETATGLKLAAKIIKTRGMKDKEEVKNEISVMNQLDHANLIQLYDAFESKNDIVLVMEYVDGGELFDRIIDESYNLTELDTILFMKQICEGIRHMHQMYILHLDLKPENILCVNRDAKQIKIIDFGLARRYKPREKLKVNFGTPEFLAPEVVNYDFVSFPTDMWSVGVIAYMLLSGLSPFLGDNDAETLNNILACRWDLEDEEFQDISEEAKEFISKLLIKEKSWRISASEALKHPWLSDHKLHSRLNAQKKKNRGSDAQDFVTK

SRSF protein kinase 1 = SRSF protein kinase 1 (Homo sapiens, UniProt Q96SB4); test: Selectivity interaction (Kinase panel (KiNativ target engagement assay in Jurkat cells)) EUB0001635a SRPK1; format: cell-based; conditions: Selectivity number of off-targets 0.0, Selectivity number of targets 233.0, Source Knowledge https://www.sciencedirect.com/science/article/pii/S2451945619300674?via%3Dihub, at 1 µM
[6] = molecular target: Activin receptor type-1-like (Homo sapiens) (UniProt P37023); test: Selectivity interaction (LanthaScreen Eu Kinase Binding Assay) EUB0001632a ACVRL1; conditions: at 10 µM
[7] = molecular target: G protein-coupled receptor kinase 6 (Homo sapiens) (UniProt P43250); test: Selectivity interaction (Kinase panel (Z-LYTE Assay)) EUB0001632a GRK6; conditions: at 10 µM
[8] = molecular target: T3, Inhibitor of nuclear factor kappa-B kinase subunit alpha (Homo sapiens) (UniProt O15111); test: Selectivity interaction (KinomeScan (DiscoverX)) EUB0000695a CHUK; conditions: at 100 nM
T3 sequence (whole entry): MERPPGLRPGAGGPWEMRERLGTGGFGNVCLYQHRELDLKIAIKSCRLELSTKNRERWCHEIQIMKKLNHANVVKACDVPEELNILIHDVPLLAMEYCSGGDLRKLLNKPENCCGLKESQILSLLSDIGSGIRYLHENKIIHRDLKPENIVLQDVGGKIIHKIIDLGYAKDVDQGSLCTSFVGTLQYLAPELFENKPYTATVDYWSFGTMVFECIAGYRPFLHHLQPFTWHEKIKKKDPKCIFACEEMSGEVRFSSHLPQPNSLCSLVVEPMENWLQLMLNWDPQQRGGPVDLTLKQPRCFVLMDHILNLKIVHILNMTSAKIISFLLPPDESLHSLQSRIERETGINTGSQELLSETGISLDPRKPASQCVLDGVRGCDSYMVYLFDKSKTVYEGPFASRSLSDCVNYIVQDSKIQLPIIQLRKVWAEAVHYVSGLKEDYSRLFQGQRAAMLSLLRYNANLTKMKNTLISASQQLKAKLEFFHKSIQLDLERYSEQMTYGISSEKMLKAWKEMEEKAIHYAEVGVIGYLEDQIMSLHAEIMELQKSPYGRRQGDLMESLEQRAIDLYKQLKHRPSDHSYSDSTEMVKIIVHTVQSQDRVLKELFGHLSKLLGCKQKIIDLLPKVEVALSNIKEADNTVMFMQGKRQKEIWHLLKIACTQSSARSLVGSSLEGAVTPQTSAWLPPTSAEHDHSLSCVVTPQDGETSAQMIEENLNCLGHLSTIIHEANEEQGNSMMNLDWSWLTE

Sequence of AP2-associated protein kinase 1 (Q2M2I8 whole entry, looked up): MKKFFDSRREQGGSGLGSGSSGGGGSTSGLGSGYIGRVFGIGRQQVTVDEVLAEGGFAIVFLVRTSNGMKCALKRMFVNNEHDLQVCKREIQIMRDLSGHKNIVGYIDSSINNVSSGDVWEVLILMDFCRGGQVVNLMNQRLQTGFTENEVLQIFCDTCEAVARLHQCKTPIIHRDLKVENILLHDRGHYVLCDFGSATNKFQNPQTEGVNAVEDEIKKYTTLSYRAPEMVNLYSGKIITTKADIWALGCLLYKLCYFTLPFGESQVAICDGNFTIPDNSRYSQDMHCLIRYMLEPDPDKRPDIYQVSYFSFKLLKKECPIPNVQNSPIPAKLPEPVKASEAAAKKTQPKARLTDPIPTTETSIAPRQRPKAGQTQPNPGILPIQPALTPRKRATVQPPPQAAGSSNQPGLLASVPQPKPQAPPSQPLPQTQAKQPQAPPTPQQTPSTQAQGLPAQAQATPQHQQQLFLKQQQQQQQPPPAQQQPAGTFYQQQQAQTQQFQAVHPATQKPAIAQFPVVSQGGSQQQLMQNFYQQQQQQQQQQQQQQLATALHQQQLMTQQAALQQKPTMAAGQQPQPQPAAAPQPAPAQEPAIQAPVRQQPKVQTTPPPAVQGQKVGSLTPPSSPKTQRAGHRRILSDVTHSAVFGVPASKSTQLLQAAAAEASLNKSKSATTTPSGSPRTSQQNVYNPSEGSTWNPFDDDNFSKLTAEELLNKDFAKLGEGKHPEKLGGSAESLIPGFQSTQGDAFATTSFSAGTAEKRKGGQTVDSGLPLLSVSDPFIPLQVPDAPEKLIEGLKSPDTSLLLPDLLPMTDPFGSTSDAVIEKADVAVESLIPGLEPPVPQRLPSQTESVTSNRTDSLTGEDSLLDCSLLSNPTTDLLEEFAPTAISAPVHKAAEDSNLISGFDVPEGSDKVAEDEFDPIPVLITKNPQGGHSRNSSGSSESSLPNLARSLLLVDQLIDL
Sequence of Mitogen-activated protein kinase 1 (P28482 whole entry): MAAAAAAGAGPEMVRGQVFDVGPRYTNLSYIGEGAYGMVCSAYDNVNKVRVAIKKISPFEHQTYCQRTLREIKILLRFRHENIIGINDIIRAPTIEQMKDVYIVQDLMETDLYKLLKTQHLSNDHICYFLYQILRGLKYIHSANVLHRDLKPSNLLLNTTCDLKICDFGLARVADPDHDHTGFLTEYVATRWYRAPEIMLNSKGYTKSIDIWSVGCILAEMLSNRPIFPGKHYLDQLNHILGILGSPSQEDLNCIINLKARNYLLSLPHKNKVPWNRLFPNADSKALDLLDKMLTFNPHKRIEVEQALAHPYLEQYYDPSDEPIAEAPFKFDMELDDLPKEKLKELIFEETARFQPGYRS
Sequence of SRSF protein kinase 1 (Q96SB4 whole entry): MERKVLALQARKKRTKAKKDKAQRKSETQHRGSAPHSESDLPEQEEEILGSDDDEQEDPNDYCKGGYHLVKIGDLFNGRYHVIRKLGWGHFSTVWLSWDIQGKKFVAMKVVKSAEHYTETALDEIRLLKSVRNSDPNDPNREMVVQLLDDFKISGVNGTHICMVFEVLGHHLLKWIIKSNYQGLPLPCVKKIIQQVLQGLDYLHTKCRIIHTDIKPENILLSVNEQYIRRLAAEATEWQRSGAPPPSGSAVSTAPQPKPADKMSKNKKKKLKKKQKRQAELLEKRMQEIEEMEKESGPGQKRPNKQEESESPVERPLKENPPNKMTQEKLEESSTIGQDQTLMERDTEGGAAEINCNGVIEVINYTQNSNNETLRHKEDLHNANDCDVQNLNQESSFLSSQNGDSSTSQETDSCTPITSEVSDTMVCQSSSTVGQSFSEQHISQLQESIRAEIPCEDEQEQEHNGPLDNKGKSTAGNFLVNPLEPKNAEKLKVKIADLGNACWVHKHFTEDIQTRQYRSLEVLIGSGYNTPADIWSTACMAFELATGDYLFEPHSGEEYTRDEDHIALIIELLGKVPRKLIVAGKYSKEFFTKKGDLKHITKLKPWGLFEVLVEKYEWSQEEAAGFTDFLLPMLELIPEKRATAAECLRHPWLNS
Sequence of G protein-coupled receptor kinase 6 (Homo sapiens) (P43250 whole entry, looked up): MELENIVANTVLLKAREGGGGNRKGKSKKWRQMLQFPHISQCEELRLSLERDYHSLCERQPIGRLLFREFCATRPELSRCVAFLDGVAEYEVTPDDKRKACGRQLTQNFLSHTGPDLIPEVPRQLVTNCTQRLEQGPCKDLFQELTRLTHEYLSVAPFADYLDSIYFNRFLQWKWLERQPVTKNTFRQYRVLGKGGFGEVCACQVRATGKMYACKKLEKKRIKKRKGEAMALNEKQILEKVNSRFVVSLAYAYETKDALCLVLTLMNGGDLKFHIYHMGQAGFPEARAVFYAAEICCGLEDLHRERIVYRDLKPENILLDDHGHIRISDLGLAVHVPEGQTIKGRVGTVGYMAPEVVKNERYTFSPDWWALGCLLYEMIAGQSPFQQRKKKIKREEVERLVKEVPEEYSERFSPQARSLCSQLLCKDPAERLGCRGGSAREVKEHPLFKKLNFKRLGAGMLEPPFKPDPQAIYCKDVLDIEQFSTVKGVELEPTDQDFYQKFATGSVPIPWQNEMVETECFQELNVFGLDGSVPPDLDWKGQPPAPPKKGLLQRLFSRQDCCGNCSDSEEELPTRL
Sequence of Activin receptor type-1-like (Homo sapiens) (P37023 whole entry): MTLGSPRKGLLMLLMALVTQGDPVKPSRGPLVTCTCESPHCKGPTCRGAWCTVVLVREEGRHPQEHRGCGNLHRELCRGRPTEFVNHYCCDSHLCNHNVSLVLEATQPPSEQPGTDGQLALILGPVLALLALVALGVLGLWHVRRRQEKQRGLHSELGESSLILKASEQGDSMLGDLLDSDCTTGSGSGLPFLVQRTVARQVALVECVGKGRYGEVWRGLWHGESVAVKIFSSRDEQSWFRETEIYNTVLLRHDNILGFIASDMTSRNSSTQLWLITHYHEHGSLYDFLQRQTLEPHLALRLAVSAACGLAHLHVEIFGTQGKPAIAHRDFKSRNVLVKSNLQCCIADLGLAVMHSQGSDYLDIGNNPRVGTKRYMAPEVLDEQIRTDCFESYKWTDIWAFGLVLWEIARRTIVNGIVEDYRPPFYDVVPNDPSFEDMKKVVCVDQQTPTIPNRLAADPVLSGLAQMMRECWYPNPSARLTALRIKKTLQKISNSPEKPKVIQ
Sequence of Tyrosine-protein kinase JAK2 (O60674 whole entry): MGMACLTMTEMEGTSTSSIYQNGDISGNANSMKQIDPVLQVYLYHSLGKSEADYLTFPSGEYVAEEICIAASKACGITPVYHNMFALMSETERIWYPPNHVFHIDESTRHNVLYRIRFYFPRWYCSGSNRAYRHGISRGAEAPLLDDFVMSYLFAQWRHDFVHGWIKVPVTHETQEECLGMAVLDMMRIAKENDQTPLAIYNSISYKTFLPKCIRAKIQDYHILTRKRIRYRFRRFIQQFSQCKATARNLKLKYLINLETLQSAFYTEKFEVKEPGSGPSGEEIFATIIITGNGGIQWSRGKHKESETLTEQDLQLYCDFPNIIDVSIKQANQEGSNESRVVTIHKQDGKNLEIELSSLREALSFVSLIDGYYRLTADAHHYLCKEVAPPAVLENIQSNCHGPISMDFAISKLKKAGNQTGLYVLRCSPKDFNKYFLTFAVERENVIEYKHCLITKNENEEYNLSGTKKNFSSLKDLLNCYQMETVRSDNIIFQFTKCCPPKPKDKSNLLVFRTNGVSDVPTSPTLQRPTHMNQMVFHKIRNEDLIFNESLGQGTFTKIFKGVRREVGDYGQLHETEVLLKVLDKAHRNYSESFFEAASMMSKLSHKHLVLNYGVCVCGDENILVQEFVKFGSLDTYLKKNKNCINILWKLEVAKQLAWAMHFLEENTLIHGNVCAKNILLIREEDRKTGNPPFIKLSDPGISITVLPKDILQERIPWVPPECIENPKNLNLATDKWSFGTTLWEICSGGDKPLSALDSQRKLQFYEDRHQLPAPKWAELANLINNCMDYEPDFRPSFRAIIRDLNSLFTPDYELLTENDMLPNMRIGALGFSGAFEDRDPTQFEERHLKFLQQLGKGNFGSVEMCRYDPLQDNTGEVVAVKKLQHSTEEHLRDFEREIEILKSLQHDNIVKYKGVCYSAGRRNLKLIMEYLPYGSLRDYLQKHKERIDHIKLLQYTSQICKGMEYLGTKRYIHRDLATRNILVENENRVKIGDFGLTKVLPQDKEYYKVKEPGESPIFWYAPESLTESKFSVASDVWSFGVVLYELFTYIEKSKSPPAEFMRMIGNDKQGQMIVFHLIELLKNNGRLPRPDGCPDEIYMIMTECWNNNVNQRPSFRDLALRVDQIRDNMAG

SMILES: CN(C)C/C=C/C(=O)Nc1ccc(C(=O)N2CCCC(Nc3ncc(Cl)c(-c4c[nH]c5ccccc45)n3)C2)cc1 (stereo not given)
- % of control [1]: 89%

SMILES: N#Cc1cccc(-c2c[nH]c3ncnc(N4CCOCC4)c23)c1
- % of control [2]: 98%
- % of control [3]: 100%

SMILES: C=CC(=O)Nc1cc(-n2c(=O)ccc3cnc4ccc(-c5ccc(NS(C)(=O)=O)cc5)cc4c32)ccc1C
- % of control ([4]; at 1 µM): 93%
- % of control ([4]; at 10 µM): 58%

SMILES: COCC(=O)NC/C=C/c1ccc2ncnc(Nc3ccc(Oc4ccc(C)nc4)c(C)c3)c2c1 [CP-724714]
- % of control [5]: 100%

SMILES: C=CC(=O)Nc1ccc(C(=O)Nc2[nH]nc3c2CN(C(=O)N[C@H](CN(C)C)c2ccccc2)C3(C)C)cc1
- % of engagement (SRSF protein kinase 1): 6%

SMILES: Cn1cc(-n2cnc3c(NCc4nc5cc(Cl)c(Cl)cc5[nH]4)nc(N4CCOCC4)nc32)cn1
- % of inhibition [6]: -13%
- % of control [7]: -1.29%

SMILES: Cc1cc(F)c(C(=O)Nc2cccc(-c3nncn3C(C)C)n2)cc1-n1cnc(C2CC2)c1
- % of control [8]: 100%
